Patent publication US6358885B1, “Substituted phenylheterocyclic herbicides” (Mississippi State University, priority 1992, dated 2002)

Assays:
[1] = tested on: barley; assay: Test B preemergence/postemergence greenhouse plant response rating 0 to 10; format: in vivo, Hordeum vulgare; conditions: 0 to 10 scale
Summary of the method: (§1)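 Planted seeds are treated preemergence with compound dissolved in a non-phytotoxic solvent, while postemergence applications go onto plants of two to eighteen cm. Plants stay in the greenhouse twelve to sixteen days and are then rated visually relative to controls.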

[2] = tested on: bedstraw; assay: as above; format: in vivo, Galium aparine; conditions: POSTEMERGENCE, 0 to 10 scale
Summary of the method: as §1

[3] = tested on: blackgrass; assay: as above; format: in vivo, Alopecurus myosuroides; conditions: 0 to 10 scale
Summary of the method: as §1

[4] = tested on: cheatgrass; assay: as above; format: in vivo, Bromus secalinus; conditions: 0 to 10 scale
Summary of the method: as §1

[5] = tested on: cotton; assay: as above; format: in vivo, Gossypium hirsutum; conditions: 0 to 10 scale
Summary of the method: as §1

[6] = tested on: rape; assay: as above; format: in vivo, Brassica napus; conditions: 0 to 10 scale
Summary of the method: as §1

[7] = tested on: rice; assay: as above; format: in vivo, Oryza sativa; conditions: 0 to 10 scale
Summary of the method: as §1

[8] = tested on: sorghum; assay: as above; format: in vivo, Sorghum bicolor; conditions: 0 to 10 scale
Summary of the method: as §1

[9] = tested on: wheat; assay: as above; format: in vivo, Triticum aestivum; conditions: 0 to 10 scale
Summary of the method: as §1

[10] = tested on: barley; assay: Test C preemergence/postemergence greenhouse plant response rating 0 to 100; format: in vivo, Hordeum vulgare; conditions: POSTEMERGENCE
Summary of the method: (§2)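 Compounds in non-phytotoxic solvent went onto sandy loam before emergence (seeded one day earlier) or onto plants at the one-to-four leaf stage. Duck salad was treated via flood water (~2.5 cm, maintained) over silt loam.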

[11] = tested on: bedstraw; assay: as above; format: in vivo, Galium aparine; conditions: POSTEMERGENCE
Summary of the method: as §2

[12] = tested on: blackgrass; assay: as above; format: in vivo, Alopecurus myosuroides; conditions: POSTEMERGENCE
Summary of the method: as §2

[13] = tested on: pigweed; assay: as above; format: in vivo, Amaranthusretroflexus; conditions: POSTEMERGENCE
Summary of the method: as §2

[14] = tested on: ryegrass; assay: as above; format: in vivo, Lolium multiflorum; conditions: POSTEMERGENCE
Summary of the method: as §2

[15] = tested on: sorghum; assay: as above; format: in vivo, Sorghum bicolor; conditions: POSTEMERGENCE
Summary of the method: as §2

[16] = tested on: sugar beet; assay: as above; format: in vivo, Beta vulgaris; conditions: POSTEMERGENCE
Summary of the method: as §2

[17] = tested on: wild buckwheat; assay: as above; format: in vivo, Polygonum convolvulus; conditions: POSTEMERGENCE
Summary of the method: as §2

[18] = tested on: duck salad; assay: Test C flood test plant response rating 0 to 100; format: in vivo, Heteranthera limosa
Summary of the method: as §2

Q: With `C#CCN1C(=O)COc2cc(F)c(-c3nn4c(c3Cl)CCCC4)cc21` [Compound 34] as the compound, how does the “Plant response rating, Barley” value ([1]; POSTEMERGENCE, Rate 10 g/ha) read?
A: 4

Q: What about the “Plant response rating, Barley” value ([1]; POSTEMERGENCE, Rate 50 g/ha) of the same compound?
A: 4

Q: What about the “Plant response rating, Barley” value ([1]; PREEMERGENCE, Rate 10 g/ha) of the same compound?
A: 0

Q: And the “Plant response rating, Barley” value ([1]; PREEMERGENCE, Rate 50 g/ha)?
A: 2

Q: What about the “Plant response rating, Bedstraw” value ([2]; Rate 10 g/ha) of the same compound?
A: 10

Q: What about the “Plant response rating, Bedstraw” value ([2]; Rate 50 g/ha) of the same compound?
A: 10

Q: And the “Plant response rating, Blackgrass” value ([3]; POSTEMERGENCE, Rate 10 g/ha)?
A: 4

Q: What about the “Plant response rating, Blackgrass” value ([3]; POSTEMERGENCE, Rate 50 g/ha) of the same compound?
A: 6

Q: What about the “Plant response rating, Blackgrass” value ([3]; PREEMERGENCE, Rate 10 g/ha) of the same compound?
A: 4

Q: And the “Plant response rating, Blackgrass” value ([3]; PREEMERGENCE, Rate 50 g/ha)?
A: 6

Q: What about the “Plant response rating, Cheatgrass” value ([4]; POSTEMERGENCE, Rate 10 g/ha) of the same compound?
A: 4

Q: What about the “Plant response rating, Cheatgrass” value ([4]; POSTEMERGENCE, Rate 50 g/ha) of the same compound?
A: 5

Q: What about the “Plant response rating, Cheatgrass” value ([4]; PREEMERGENCE, Rate 10 g/ha) of the same compound?
A: 3

Q: And the “Plant response rating, Cheatgrass” value ([4]; PREEMERGENCE, Rate 50 g/ha)?
A: 6

Q: And the “Plant response rating, Cotton” value ([5]; POSTEMERGENCE, Rate 10 g/ha)?
A: 10

Q: What about the “Plant response rating, Cotton” value ([5]; POSTEMERGENCE, Rate 50 g/ha) of the same compound?
A: 10

Q: And the “Plant response rating, Cotton” value ([5]; PREEMERGENCE, Rate 10 g/ha)?
A: 0

Q: And the “Plant response rating, Cotton” value ([5]; PREEMERGENCE, Rate 50 g/ha)?
A: 0

Q: What about the “Plant response rating, Rape” value ([6]; POSTEMERGENCE, Rate 10 g/ha) of the same compound?
A: 10

Q: And the “Plant response rating, Rape” value ([6]; POSTEMERGENCE, Rate 50 g/ha)?
A: 10

Q: And the “Plant response rating, Rape” value ([6]; PREEMERGENCE, Rate 50 g/ha)?
A: 6

Q: And the “Plant response rating, Rice” value ([7]; POSTEMERGENCE, Rate 10 g/ha)?
A: 5

Q: What about the “Plant response rating, Rice” value ([7]; POSTEMERGENCE, Rate 50 g/ha) of the same compound?
A: 5

Q: And the “Plant response rating, Rice” value ([7]; PREEMERGENCE, Rate 50 g/ha)?
A: 2

Q: And the “Plant response rating, Sorghum” value ([8]; POSTEMERGENCE, Rate 10 g/ha)?
A: 4

Q: What about the “Plant response rating, Sorghum” value ([8]; POSTEMERGENCE, Rate 50 g/ha) of the same compound?
A: 6

Q: And the “Plant response rating, Sorghum” value ([8]; PREEMERGENCE, Rate 50 g/ha)?
A: 2

Q: What about the “Plant response rating, Wheat” value ([9]; POSTEMERGENCE, Rate 10 g/ha) of the same compound?
A: 5

Q: And the “Plant response rating, Wheat” value ([9]; POSTEMERGENCE, Rate 50 g/ha)?
A: 5

Q: And the “Plant response rating, Wheat” value ([9]; PREEMERGENCE, Rate 50 g/ha)?
A: 3

Q: And the “Plant response rating Barley Igri” value ([10]; 62 g/ha, 0 to 100 scale)?
A: 40

Q: And the “Plant response rating (0 to 100), Barley Igri” value ([10]; Rate 1 g/ha)?
A: 20

Q: What about the “Plant response rating (0 to 100), Barley Igri” value ([10]; Rate 4 g/ha) of the same compound?
A: 30

Q: And the “Plant response rating (0 to 100), Barley Igri” value ([10]; Rate 16 g/ha)?
A: 40

Q: And the “Plant response rating, Bedstraw” value ([11]; 62 g/ha, 0 to 100 scale)?
A: 100

Q: What about the “Plant response rating (0 to 100), Bedstraw” value ([11]; Rate 1 g/ha) of the same compound?
A: 30

Q: And the “Plant response rating (0 to 100), Bedstraw” value ([11]; Rate 4 g/ha)?
A: 95

Q: What about the “Plant response rating (0 to 100), Bedstraw” value ([11]; Rate 16 g/ha) of the same compound?
A: 100

Q: What about the “Plant response rating, Blackgrass” value ([12]; 62 g/ha, 0 to 100 scale) of the same compound?
A: 60

Q: What about the “Plant response rating (0 to 100), Blackgrass” value ([12]; Rate 1 g/ha) of the same compound?
A: 20

Q: What about the “Plant response rating (0 to 100), Blackgrass” value ([12]; Rate 4 g/ha) of the same compound?
A: 30

Q: And the “Plant response rating (0 to 100), Blackgrass” value ([12]; Rate 16 g/ha)?
A: 50

Q: What about the “Plant response rating Pigweed” value ([13]; 62 g/ha, 0 to 100 scale) of the same compound?
A: 100

Q: And the “Plant response rating (0 to 100), Pigweed” value ([13]; Rate 1 g/ha)?
A: 90

Q: What about the “Plant response rating (0 to 100), Pigweed” value ([13]; Rate 4 g/ha) of the same compound?
A: 100

Q: What about the “Plant response rating (0 to 100), Pigweed” value ([13]; Rate 16 g/ha) of the same compound?
A: 100

Q: And the “Plant response rating Ryegrass” value ([14]; 62 g/ha, 0 to 100 scale)?
A: 30

Q: And the “Plant response rating (0 to 100), Ryegrass” value ([14]; Rate 1 g/ha)?
A: 10

Q: What about the “Plant response rating (0 to 100), Ryegrass” value ([14]; Rate 4 g/ha) of the same compound?
A: 20

Q: What about the “Plant response rating (0 to 100), Ryegrass” value ([14]; Rate 16 g/ha) of the same compound?
A: 30

Q: And the “Plant response rating, Sorghum” value ([15]; 62 g/ha, 0 to 100 scale)?
A: 70

Q: What about the “Plant response rating (0 to 100), Sorghum” value ([15]; Rate 1 g/ha) of the same compound?
A: 30

Q: And the “Plant response rating (0 to 100), Sorghum” value ([15]; Rate 4 g/ha)?
A: 40

Q: And the “Plant response rating (0 to 100), Sorghum” value ([15]; Rate 16 g/ha)?
A: 50

Q: What about the “Plant response rating, Sugar beet” value ([16]; 62 g/ha, 0 to 100 scale) of the same compound?
A: 100

Q: What about the “Plant response rating (0 to 100), Sugar beet” value ([16]; Rate 4 g/ha) of the same compound?
A: 80

Q: What about the “Plant response rating (0 to 100), Sugar beet” value ([16]; Rate 16 g/ha) of the same compound?
A: 100

Q: And the “Plant response rating, Wild buckwheat” value ([17]; 62 g/ha, 0 to 100 scale)?
A: 100

Q: And the “Plant response rating (0 to 100), Wild buckwheat” value ([17]; Rate 4 g/ha)?
A: 50

Q: And the “Plant response rating (0 to 100), Wild buckwheat” value ([17]; Rate 16 g/ha)?
A: 100

Q: What about the “Plant response rating (0 to 100), Duck salad” value ([18]; POSTEMERGENCE section, flood test, Rate 1 g/ha) of the same compound?
A: 0

Q: What about the “Plant response rating (0 to 100), Duck salad” value ([18]; POSTEMERGENCE section, flood test, Rate 4 g/ha) of the same compound?
A: 0

Q: What about the “Plant response rating (0 to 100), Duck salad” value ([18]; Rate 16 g/ha, under POSTEMERGENCE head (flood test species)) of the same compound?
A: 0

Q: And the “Plant response rating Duck salad” value ([18]; flood test species listed under POSTEMERGENCE, 62 g/ha, 0 to 100 scale)?
A: 40
